The text below walks through data of PubChem BioAssay (NCI).

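Interpolation was linear, between the two tested concentrations surrounding the appropriate level; five concentrations were tested over 48 hours in 96-well plates. Here, GI50 denotes the concentration required for 50% inhibition of growth. The concentration for full growth arrest is given as TGI.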 Bounds are passed on as bounds.

Common to all, as to assay: NCI-60 cell line screen, 48 h
The test system of assay [1] is SK-MEL-5 melanoma.
In assay [2] the test system is HOP-62 NSCLC.
For assay [3], the system named is U251 CNS.
Assay [4] relates to OVCAR-8 ovarian.
Assay [5] deals with IGROV1 ovarian.
Assay [6] concerns UACC-62 melanoma.
Assay [7] relates to LOX IMVI melanoma.
The subject of assay [8] is SNB-75 CNS.
For assay [9], the system named is HOP-92 NSCLC.
In assay [10] the test system is SN12C renal.

Consider `COc1cc2c(cc1OC)C(CCc1ccc(Cl)cc1)N(C)CC2` (stereo not given), for which the GI50 in [1] was 14.4 µM; in assay [2] it was 32.9 µM; in [3], 22.8 µM; in assay [4], 32.6 µM; in [5] it was 36.9 µM; in [6] it was 20.1 µM. The GI50 in assay [7] was 15 µM; in assay [8], 11.9 µM; in [9] it was 13.6 µM; in [10], 39.9 µM. For the same compound, the TGI is 27.6 µM in [1]; above 100 µM in assay [2]; 64.3 µM in assay [3]; above 100 µM in assay [4]; above 100 µM in assay [5]; 44.5 µM in [6]. The TGI was 30.8 µM in assay [7], 43.5 µM in assay [8], 92.7 µM in [9] and above 100 µM in assay [10].
With `Nc1ccc2c(c1)C(=O)c1ccc(F)cc1-2`, the TGI in assay [1], in [2], in assay [3], in assay [4], in [5] and in assay [6] was above 100 µM in each case. Moreover, the TGI in [7], in [8], in assay [9] and in [10] was above 100 µM throughout.
Consider `O=C1NC(=NCc2cccs2)SC1Cc1ccc2ncccc2c1` (stereo not given), for which the GI50 in assay [1] was 17.4 µM; in assay [2], 20.1 µM; in [3], 17.6 µM; in assay [4] it was above 25 µM; in [5] it was above 16.5 µM; in assay [6], 15 µM. In addition, the GI50 in [7] was 19.2 µM; in assay [8], 7.49 µM; in assay [9], 10.3 µM; in assay [10], above 23.6 µM. Also, the TGI in assay [1], in assay [2], in assay [3], in assay [4], in assay [5] and in assay [6] was above 25 µM in each case. In addition, the TGI in assay [7], in [8], in assay [9] and in assay [10] was above 25 µM each time.
Take `O=C(CCCn1c2c(sc3ncccc32)c(=O)n2nnc(-c3ccccc3)c12)NCCc1cnc[nH]1`: the GI50 in [1] was 16.1 µM; in assay [2] it was 16.5 µM; in assay [3], 1.28 µM; in [4], 0.0952 µM; in assay [5] it was 9.54 µM; in [6], 16 µM. The GI50 in assay [7] was 12.4 µM; in [8] it was 15.1 µM; in assay [9], 17 µM; in [10], 0.331 µM. Moreover, the TGI in assay [1] was above 100 µM; in assay [2], 32 µM; in assay [3] it was 14.9 µM; in assay [4], 17.3 µM; in assay [5], 27.6 µM; in assay [6], 30.5 µM. For the same compound, the TGI was 26.6 µM in assay [7], 28.9 µM in [8], 39.5 µM in [9] and 13.4 µM in assay [10].
With `O=C1Cc2cc(CCn3ccnc3)c(Cl)cc2N1`, the GI50 was 8.12 µM in [1]; 33.2 µM in [2]; 8.24 µM in assay [3]; 24.1 µM in assay [4]; above 100 µM in [5]; 7.68 µM in assay [6]. Further, the GI50 in assay [7] is 85.3 µM; in assay [8] it was 21.6 µM; in assay [9] it was 3.54 µM; in assay [10], 16.5 µM. Further, the TGI in assay [1], in assay [2], in assay [3], in assay [4], in [5] and in [6] was above 100 µM in each case. In addition, the TGI in assay [7] was above 100 µM; in assay [8], above 100 µM; in assay [9] it was 91.5 µM; in assay [10] it was above 100 µM.
In the case of `OC1CN(OC/C=C/c2ccccc2)CC(O)C1O` (stereo not given), the TGI in assay [1], in assay [2], in assay [3], in assay [4], in [5] and in assay [6] was above 100 µM each time. For the same compound, the TGI in assay [7], in assay [8], in [9] and in [10] was above 100 µM each time.
As to `COC1=C(OC)C(=O)C(/C=C(\C)C(=O)O)=C(C)C1=O`, the GI50 in [1], in assay [2], in assay [3], in [4], in assay [5] and in assay [6] was above 100 µM each time. Further, the GI50 in [7] is above 100 µM; in assay [8], 49.1 µM; in [9], above 100 µM; in assay [10], above 100 µM. The TGI in assay [1], in assay [2], in [3], in assay [4], in [5] and in [6] was above 100 µM throughout. For the same compound, the TGI in assay [7], in assay [8], in [9] and in assay [10] was above 100 µM in each case.
As to `CCOC(=O)C1=C(Nc2ccccc2)OC/C1=N\NC(=O)Cc1ccccc1`, the TGI in assay [1], in [2], in assay [3], in [4], in [5] and in [6] was above 50 µM in each case. Moreover, the TGI in assay [7], in assay [8], in [9] and in [10] was above 50 µM throughout.
In the case of `O=C(Nc1cccc(Cl)c1)Nc1cccc(Cl)c1`, the GI50 in assay [1] was above 100 µM; in [2] it was 21.9 µM; in [3], 7.05 µM; in [4], 15.3 µM; in assay [5], 37.8 µM; in [6] it was 3.69 µM. In addition, the GI50 in [7] is 32 µM; in [8], 2.49 µM; in [9], 2.11 µM; in [10], above 100 µM. Besides, the TGI in assay [1] is above 100 µM; in [2], above 88.8 µM; in assay [3], above 100 µM; in assay [4] it was above 100 µM; in assay [5], above 100 µM; in assay [6], above 100 µM. The TGI in assay [7] was above 100 µM; in assay [8], 44.3 µM; in assay [9], above 100 µM; in [10] it was above 100 µM.
